According to PubChem BioAssay AID1259411 (Chemical Carcinogenesis Research Information System (CCRIS), 2018):
Activity calls are given as the source filed them. The rule behind the calls is not given here.

Tested on: rodent carcinogenicity bioassays, tumor incidence
Assay: CCRIS carcinogenicity studies
In short: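 Archive of carcinogenicity, mutagenicity, tumor promotion and tumor inhibition results drawn from journals, NCI reports and other sources, expert-reviewed; covers 1985-2011 and is no longer updated.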

Question: With `CCOP(=S)(OCC)SC1OCCOC1SP(=S)(OCC)OCC` (stereo unspecified) as the compound, how does the carcinogen call (Species: MOUSE, Strain/Sex: B6C3F1/FEMALE, Route: ORAL, Dose: 0, 467, 935 PPM IN DIET, TWA, Dose: 0, 467, 935 PPM IN DIET, TWA) read?
Answer: inactive; negative

Question: What about the carcinogen call (Species: MOUSE, Strain/Sex: B6C3F1/MALE, Route: ORAL, Dose: 0, 284, 567 PPM IN DIET, TWA, Dose: 0, 284, 567 PPM IN DIET, TWA) of the same compound?
Answer: inactive; negative

Question: What about the carcinogen call (Species: RAT, Strain/Sex: OSBORNE-MENDEL/FEMALE, Route: ORAL, Dose: 0, 45, 90 PPM IN DIET, TWA, Dose: 0, 45, 90 PPM IN DIET, TWA) of the same compound?
Answer: inactive; negative

Question: And the carcinogen call (Species: RAT, Strain/Sex: OSBORNE-MENDEL/MALE, Route: ORAL, Dose: 0, 90, 180 PPM IN DIET, TWA, Dose: 0, 90, 180 PPM IN DIET, TWA)?
Answer: inactive; negative

Question: For `OCCN(CCO)CCO`, which carcinogen call (Species: MOUSE, Route: ORAL, Tumor Site: Type of Lesion: LYMPHATIC SYSTEM) is on record?
Answer: active; positive

Question: What about the carcinogen call (Species: MOUSE, Strain/Sex: B6C3F1/FEMALE, Route: DERMAL, Dose: 0, 100, 300, 1000 MG/KG 5 D/WK FOR 104 -105 WKS (STUDY DURATION: 105 WKS), Dose: 0, 100, 300, 1000 MG/KG 5 D/WK FOR 104 -105 WKS (STUDY DURATION: 105 WKS), Tumor Site: Type of Lesion: LIVER: HEPATOCELLULAR ADENOMA OR CARCINOMA) of the same compound?
Answer: active; positive

Question: What about the carcinogen call (Species: MOUSE, Strain/Sex: B6C3F1/FEMALE, Route: ORAL, Dose: 0, 1, 2% IN DRINKING WATER FOR 82 WK (STUDY DURATION: 82 WK), Dose: 0, 1, 2% IN DRINKING WATER FOR 82 WK (STUDY DURATION: 82 WK)) of the same compound?
Answer: inactive; negative

Question: What about the carcinogen call (Species: MOUSE, Strain/Sex: B6C3F1/MALE, Route: DERMAL, Dose: 0, 200, 630, 2000 MG/KG 5D/WK FOR 104 WKS (STUDY DURATION: 104 WKS), Dose: 0, 200, 630, 2000 MG/KG 5D/WK FOR 104 WKS (STUDY DURATION: 104 WKS), Tumor Site: Type of Lesion: LIVER: HEMANGIOSARCOMA AT MEDIAN DOSE LEVEL) of the same compound?
Answer: equivocal; p=0.047 at median dose for hemangiosarcoma

Question: What about the carcinogen call (Species: MOUSE, Strain/Sex: B6C3F1/MALE, Route: ORAL, Dose: 0, 1, 2% IN DRINKING WATER FOR 82 WK (STUDY DURATION: 82 WK), Dose: 0, 1, 2% IN DRINKING WATER FOR 82 WK (STUDY DURATION: 82 WK)) of the same compound?
Answer: inactive; negative

Question: What about the carcinogen call (Species: RAT, Strain/Sex: F344/FEMALE, Route: DERMAL, Dose: 0, 32, 63, 125 MG/KG 5 D/WK FOR 103 WK (STUDY DURATION: 103 WK), Dose: 0, 32, 63, 125 MG/KG 5 D/WK FOR 103 WK (STUDY DURATION: 103 WK)) of the same compound?
Answer: inactive; negative

Question: What about the carcinogen call (Species: RAT, Strain/Sex: F344/MALE, Route: DERMAL, Dose: 0, 32, 63, 125 MG/KG 5 D/WK FOR 103 WK (STUDY DURATION: 103 WK), Dose: 0, 32, 63, 125 MG/KG 5 D/WK FOR 103 WK (STUDY DURATION: 103 WK), Tumor Site: Type of Lesion: KIDNEY: RENAL TUBULE ADENOMA) of the same compound?
Answer: equivocal

Question: How did the carcinogen call (Species: MOUSE, Strain/Sex: B6C3F1/FEMALE, Route: ORAL, Dose: 0, 100, 200 PPM IN FEED FOR 103 WK (STUDY DURATION: 105 WK), Dose: 0, 100, 200 PPM IN FEED FOR 103 WK (STUDY DURATION: 105 WK)) turn out when `O=[N+]([O-])c1cc([As](=O)(O)O)ccc1O` was run?
Answer: inactive; negative

Question: And the carcinogen call (Species: MOUSE, Strain/Sex: B6C3F1/MALE, Route: ORAL, Dose: 0, 100, 200 PPM IN FEED FOR 103 WK (STUDY DURATION: 105 WK), Dose: 0, 100, 200 PPM IN FEED FOR 103 WK (STUDY DURATION: 105 WK))?
Answer: inactive; negative

Question: What about the carcinogen call (Species: RAT, Strain/Sex: F344/FEMALE, Route: ORAL, Dose: 0, 50, 100 PPM IN FEED FOR 103 WK (STUDY DURATION: 104 WK), Dose: 0, 50, 100 PPM IN FEED FOR 103 WK (STUDY DURATION: 104 WK)) of the same compound?
Answer: inactive; negative

Question: What about the carcinogen call (Species: RAT, Strain/Sex: F344/MALE, Route: ORAL, Dose: 0, 50, 100 PPM IN FEED FOR 103 WK (STUDY DURATION: 104 WK), Dose: 0, 50, 100 PPM IN FEED FOR 103 WK (STUDY DURATION: 104 WK), Tumor Site: Type of Lesion: EXOCRINE PANCREAS: ADENOMA) of the same compound?
Answer: equivocal

Question: Which results are given for `CC(=NC#N)N(C)Cc1ccc(Cl)nc1`?
Answer: carcinogen call (Species: Mouse, Strain/Sex: Crl:CD-1 (ICR)BR/Female, Route: Oral, Dose: 0, 130, 400, 1200 ppm (0; 25; 76; 215 mg/kg/day) in feed for 18 mo, Dose: 0, 130, 400, 1200 ppm (0; 25; 76; 215 mg/kg/day) in feed for 18 mo): inactive; negative; carcinogen call (Species: Mouse, Strain/Sex: Crl:CD-1 (ICR)BR/Male, Route: Oral, Dose: 0, 130, 400, 1200 ppm (0; 20; 66; 186 mg/kg/day) in feed for 18 mo, Dose: 0, 130, 400, 1200 ppm (0; 20; 66; 186 mg/kg/day) in feed for 18 mo): inactive; negative; carcinogen call (Species: Rat, Strain/Sex: Crl:CD BR/Female, Route: Oral, Dose: 0, 160, 400, 1000 ppm (0; 8.8; 22.6; 60.0 mg/kg/day) in feed for 2 yr, Dose: 0, 160, 400, 1000 ppm (0; 8.8; 22.6; 60.0 mg/kg/day) in feed for 2 yr): inactive; negative; carcinogen call (Species: Rat, Strain/Sex: Crl:CD BR/Male, Route: Oral, Dose: 0, 160, 400, 1000 ppm (0; 7.1; 17.5; 46.4 mg/kg/day) in feed for 2 yr, Dose: 0, 160, 400, 1000 ppm (0; 7.1; 17.5; 46.4 mg/kg/day) in feed for 2 yr): inactive; negative

Question: How did the carcinogen call (Species: RAT, Strain/Sex: SPRAGUE-DAWLEY/FEMALE, Route: SUBCUTANEOUS, Dose: 0, 0.2 UMOL IN SESAME OIL:DMSO (9:1) 3/WK FOR 20 DOSES (STUDY DURATION: 52 WK), Tumor Site: Type of Lesion: INJECTION SITE: SARCOMA) turn out when `O=S(=O)(O)OCc1c2ccccc2cc2c1ccc1ccccc12` was run?
Answer: active; positive

Question: With `CCC(C)OC(=O)N1CCCCC1CCO` (stereo unspecified) as the compound, how does the carcinogen call (Species: MOUSE, Strain/Sex: CD-1/FEMALE, Route: DERMAL, Dose: 0, 50, 100, 200 MG/KG BW FOR 78 WK (STUDY DURATION: 78 WK), Dose: 0, 50, 100, 200 MG/KG BW FOR 78 WK (STUDY DURATION: 78 WK)) read?
Answer: inactive; negative

Question: What about the carcinogen call (Species: MOUSE, Strain/Sex: CD-1/MALE, Route: DERMAL, Dose: 0, 50, 100, 200 MG/KG BW FOR 78 WK (STUDY DURATION: 78 WK), Dose: 0, 50, 100, 200 MG/KG BW FOR 78 WK (STUDY DURATION: 78 WK)) of the same compound?
Answer: inactive; negative

Question: What about the carcinogen call (Species: RAT, Strain/Sex: SPRAGUE-DAWLEY/FEMALE, Route: DERMAL, Dose: 0, 50, 100, 200 MG/KG BW FOR 104 WK (STUDY DURATION: 104 WK), Dose: 0, 50, 100, 200 MG/KG BW FOR 104 WK (STUDY DURATION: 104 WK)) of the same compound?
Answer: inactive; negative

Question: And the carcinogen call (Species: RAT, Strain/Sex: SPRAGUE-DAWLEY/MALE, Route: DERMAL, Dose: 0, 50, 100, 200 MG/KG BW FOR 104 WK (STUDY DURATION: 104 WK), Dose: 0, 50, 100, 200 MG/KG BW FOR 104 WK (STUDY DURATION: 104 WK))?
Answer: inactive; negative

Question: With `O=C/C(Br)=C/c1ccccc1` as the compound, how does the carcinogen call (Species: MOUSE, Strain/Sex: SLC:DDY/FEMALE, Route: DERMAL, Dose: 0, 0.25, 1, 4% IN OLIVE OIL 2/WK FOR 79 WK (STUDY DURATION: 79 WK), Dose: 0, 0.25, 1, 4% IN OLIVE OIL 2/WK FOR 79 WK (STUDY DURATION: 79 WK)) read?
Answer: inactive; negative

Question: `CCNC(=O)[C@@H]1CCCN1C(=O)[C@H](CCCN=C(N)N)NC(=O)[C@H](CC(C)C)NC(=O)[C@@H](COC(C)(C)C)NC(=O)[C@H](Cc1ccc(O)cc1)NC(=O)[C@H](CO)NC(=O)[C@H](Cc1c[nH]c2ccccc12)NC(=O)[C@H](Cc1cnc[nH]1)NC(=O)[C@@H]1CCC(=O)N1` was tested. Which carcinogen call (Species: RAT, Strain/Sex: WISTAR/FEMALE, Route: SUBCUTANEOUS, Dose: 0, 0.0002, 0.0006, 0.0018 MG/KG 1/D FOR 24 MO (STUDY DURATION: 30 MO), Dose: 0, 0.0002, 0.0006, 0.0018 MG/KG 1/D FOR 24 MO (STUDY DURATION: 30 MO)) did it give?
Answer: inactive; negative

Question: What about the carcinogen call (Species: RAT, Strain/Sex: WISTAR/MALE, Route: SUBCUTANEOUS, Dose: 0, 0.0002, 0.0006, 0.0018 MG/KG 1/D FOR 24 MO (STUDY DURATION: 30 MO), Dose: 0, 0.0002, 0.0006, 0.0018 MG/KG 1/D FOR 24 MO (STUDY DURATION: 30 MO)) of the same compound?
Answer: inactive; negative

Question: How did the carcinogen call (Species: MOUSE, Strain/Sex: B6C3F1/MALE, Route: INTRAPERITONEAL, Dose: 0, 400 NMOL IN 35 µL DMSO ON DAYS 1 (1/7 TOTAL DOSE), 8 (2/7 TOTAL DOSE), AND 15 (4/7 TOTAL DOSE) AFTER BIRTH (STUDY DUR) turn out when `c1ccc2cc3c4ccccc4c4ccccc4c3cc2c1` was run?
Answer: inactive; negative

Question: For `O[C@H]1[C@H]2O[C@H]2C=C[C@@H]1O`, which carcinogen call (Species: MOUSE, Strain/Sex: SWISS/FEMALE, Route: INTRAPERITONEAL, Dose: 0, 13.7 UMOL ADMINISTERED AS 3 UNEQUAL DOSES (1/7, 2/7, AND 4/7 OF THE TOTAL DOSE) OVER A 2-WK PERIOD (STUDY DURATION: 2, Tumor Site: Type of Lesion: LUNG: ADENOMA) is on record?
Answer: active; positive

Question: What about the carcinogen call (Species: MOUSE, Strain/Sex: SWISS/MALE, Route: INTRAPERITONEAL, Dose: 0, 13.7 UMOL ADMINISTERED AS 3 UNEQUAL DOSES (1/7, 2/7, AND 4/7 OF THE TOTAL DOSE) OVER A 2-WK PERIOD (STUDY DURATION: 2, Tumor Site: Type of Lesion: LUNG: ADENOMA) of the same compound?
Answer: active; positive

Question: How did the carcinogen call (Species: MOUSE, Route: INTRAPERITONEAL, Tumor Site: Type of Lesion: LUNG) turn out when `CC(C)(C)Br` was run?
Answer: active; positive
